# According to article PMC9776540, “Therapeutic Potential of a Water-Soluble Silver-Diclofenac Coordination Polymer on 3D Pancreatic Cancer Spheroids” (Journal of Medicinal Chemistry, 2022):
# Key:
# [1] = test system: PANC-1 cells; conditions: PANC-1, 1 at IC50, others at molar ratio 1:1:1, 72 h after treatment
# Procedure: (§1) MCF7 cell line (human breast adenocarcinoma, morphology: epithelial-like, ATCC: HTB-22), A549 cell […]
# (§2) keratinocyte, morphology: epidermal, CSL Cell Lines Service GmbH); were cultured in Dulbecco’s Modified Eagle’s Medium (DMEM, Corning) with phenol red, supplemented with 10% fetal bovine serum (FBS) and with 1% streptomycin/penicillin. […]
# (§3) from metastatic site: brain, ATCC: HTB-81) and MCR-5 cell line (primary line of human pulmonary […]
# (§4) 10% fetal bovine serum (FBS). Cultures were incubated at 37 °C under a humidified atmosphere containing 5% CO2. Cells were transferred using a solution containing 0.05% trypsin and 0.5 mM EDTA.
# All media and other ingredients were purchased from ALAB, Poland. […]
# Acridine Orange (OA) and Propidium Iodide PI Staining
# AO is a nucleic acid-binding fluorophore that is cell membrane permeable and suitable for selective staining of nucleated living cells. PI is a nucleic acid-binding dye that is impermeable to live cells and suitable for staining dead or dying nucleated cells. All live, nucleated cells fluoresce green due to AO, and dead, nucleated cells are stained with both AO and PI and fluoresce red. For analysis of 1-induced
# [2] = test system: pBR322 plasmid; assay: DNA strand break analysis, agarose gel electrophoresis; assay type: biochemical; conditions: pBR322, 24 h, even at high concentration (500 μM)
# Procedure: Then, the interaction between DNA and diclofenac, PTA, or 1 was evaluated by the gel electrophoresis of pBR322 plasmid to determine an ability to cause double- and/or single-strand DNA damages (Figure 6D). The double-strand damage may result in the appearance of different forms of DNA (linear form III and relaxed form II), which can be quantified by densitometry analysis (Figure 6E).
# DNA Strand Break Analysis
# The ability of 1, PTA and diclofenac to induce single- or double-strand breaks in plasmid DNA was tested
# with the pBR322 plasmid (c = 0.5 mg/mL). All compounds were dissolved in water (c = 1 µM-500 µM).
# After 1 h incubation at 37 °C, the reaction mixtures (20 μL) were mixed with 3 μL of loading buffer
# (bromophenol blue in 30% glycerol) and loaded on 1% agarose gels, containing EB, in TBE buffer (90
# mM Tris–borate, 20 mM EDTA, pH = 8.0). Gel electrophoresis was performed at a constant voltage of
# 100 V (4 V/cm) for 60 min. The gel was photographed and processed with a Digital Imaging System
# (Syngen Biotech). For the densitometric analysis the UltraQuant 6.0 program was used.
# [3] = test system: PANC-1 cells; assay: Mitochondrial membrane potential, JC-10 assay; assay type: cell-based, human; conditions: PANC-1, 4 h, 1 at IC50, others at molar ratio 1:1:1
# Procedure: As an important indicator of mitochondrial dysfunction, the variation in mitochondrial membrane potential was monitored by the JC-10 probe (Figure 6C) aiming to understand the importance of mitochondrial disorder during the cancer cell death induced by 1.
# Detection of Mitochondrial Membrane Potential (Δψ)
# Mitochondrial membrane potential (MMP) depletion was determined by JC-10 Assay (Life
# Technologies, USA). […] After 24h
# ciprofloxacin (10 µg/mL) as positive and negative control, respectively. After that, cells were incubated
# for 4 h at standard condition (37 °C, 5% CO2). Then, they were washed twice with PBS buffer and
# incubated with JC-10 for 1 h. Afterwards, emission was measured at two different excitation
# wavelengths ( exc = 540 nm,  em = 570 nm) and ( exc = 485 nm,  em = 530 nm). Results are presented as
# the intensity ratio of red to green emission (mean + S.D.).
# [4] = test system: PANC-1; assay: MTT survival test, surviving fraction (Table S3); assay type: cell-based, human
# Procedure: (§5) 24, and 72 h. After each incubation time, the cells were washed with PBS. Then, fresh medium (supplemented with 10% FSB) was added, and the cells were incubated under standard conditions for another 24 h (6h + 24h, 24h + 24h, 72h + 24h). After this time, the MTT survival test was done. Surviving fraction given in % was estimated with relation to untreated cells. In the case of 6h + 24h and 24h + 24h approaches, the cells were seeded at 10 000 cells per well, while in the case of 72h + 24h at […]
# [5] = test system: A549; assay: MTT survival test, surviving fraction (Table S3); assay type: cell-based, human
# Procedure: as §5
# [6] = test system: MCF-7; assay: MTT survival test, surviving fraction (Table S3); assay type: cell-based, human
# Procedure: as §5
# [7] = test system: HaCat; assay: MTT survival test, surviving fraction (Table S3); assay type: cell-based, human
# Procedure: as §5
# [8] = test system: DU-145; assay: MTT survival test, surviving fraction (Table S3); assay type: cell-based, human
# Procedure: as §5
# [9] = test system: PANC-1; assay: MTT cytotoxicity assay (IC50); assay type: cell-based, human; conditions: Homo sapiens, PANC-1, 72 h
# Procedure: as §1, §2, §3, §4
# (§6) All media and other ingredients were purchased from ALAB, Poland.
# (§7) Cytotoxicity was assessed by MTT assay performed according the protocols described elsewhere.S1 In brief, 1×10^4 cells per well, seeded in 96-well flat bottom microtiter plate, were incubated with the tested compounds (in the appropriate media) at various range of concentrations for 24 h. After that time, solutions of compounds were washed out, cells were washed three times with PBS and fresh medium was applied. After next 72 h cell viability was determined using the Hill equation (Origin 9.0) with regard to the untreated cells (control), where y0 – untreated cell control (which was set to 100% viability), y100 – a lysis control (where the cells were treated with 0.5% triton X-100 was set to 0% […]
# (§8) [c] at which the viability of the cells reaches 50%, H – the Hill coefficient (describing cooperativity):
# (§9) Each compound concentration was tested in five replicates and repeated at least three times.
# (§10) Determined values of IC50 are given as mean + S.D. (Standard Deviation).
# (§11) Cisplatin was tested as a reference anticancer drug. […]
# [10] = test system: A549; assay: MTT cytotoxicity assay (IC50); assay type: cell-based, human; conditions: Homo sapiens, A549, 72 h
# Procedure: as §1, §2, §3, §4, §6, §7, §8, §9, §10, §11
# [11] = test system: MCF7; assay: MTT cytotoxicity assay (IC50); assay type: cell-based, human; conditions: Homo sapiens, MCF7, 72 h
# Procedure: as §1, §2, §3, §4, §6, §7, §8, §9, §10, §11
# [12] = test system: MRC5; assay: MTT cytotoxicity assay (IC50); assay type: cell-based, human; conditions: Homo sapiens, MRC5, 72 h
# Procedure: as §1, §2, §3, §4, §6, §7, §8, §9, §10, §11
# [13] = test system: HaCat; assay: MTT cytotoxicity assay (IC50); assay type: cell-based, human; conditions: Homo sapiens, HaCaT, 72 h
# Procedure: as §1, §2, §3, §4, §6, §7, §8, §9, §10, §11
# [14] = test system: DU-145; assay: MTT cytotoxicity assay (IC50); assay type: cell-based, human; conditions: Homo sapiens, DU-145, 72 h
# Procedure: as §1, §2, §3, §4, §6, §7, §8, §9, §10, §11
smiles,measurement,setting,value
"C1N2CN3CN1CP(C2)C3 [PTA, 1,3,5-triaza-7-phosphaadamantane]",cytotoxicity seen by AO/PI staining,[1],did not induce visible cytotoxicity
same,degradation of plasmid DNA,[2],no degradation of DNA
same,change of mitochondrial membrane potential (570/530 nm ratio of JC-10 fluorescence intensity),[3],significant decrease
same,surviving fraction,"[4]; PANC-1, 6h + 24h, dil. 10 000x (stocks: diclofenac 0.918, PTA 0.483, AgNO3 0.326 mg/mL)",89.7 ± 12.5%
same,surviving fraction,"[4]; PANC-1, 6h + 24h, dil. 100x (stocks: diclofenac 0.918, PTA 0.483, AgNO3 0.326 mg/mL)",74.7 ± 9.8%
same,surviving fraction,"[4]; PANC-1, 6h + 24h, dil. 1000x (stocks: diclofenac 0.918, PTA 0.483, AgNO3 0.326 mg/mL)",86.5 ± 6.4%
same,surviving fraction,"[4]; PANC-1, 24h + 24h, dil. 10 000x (stocks: diclofenac 0.918, PTA 0.483, AgNO3 0.326 mg/mL)",107.5 ± 6.8%
same,surviving fraction,"[4]; PANC-1, 24h + 24h, dil. 100x (stocks: diclofenac 0.918, PTA 0.483, AgNO3 0.326 mg/mL)",78.7 ± 8.3%
same,surviving fraction,"[4]; PANC-1, 24h + 24h, dil. 1000x (stocks: diclofenac 0.918, PTA 0.483, AgNO3 0.326 mg/mL)",85.2 ± 9.5%
same,surviving fraction,"[4]; PANC-1, 72h + 24h, dil. 10 000x (stocks: diclofenac 0.918, PTA 0.483, AgNO3 0.326 mg/mL)",98.9 ± 8.9%
same,surviving fraction,"[4]; PANC-1, 72h + 24h, dil. 100x (stocks: diclofenac 0.918, PTA 0.483, AgNO3 0.326 mg/mL)",70.8 ± 6.7%
same,surviving fraction,"[4]; PANC-1, 72h + 24h, dil. 1000x (stocks: diclofenac 0.918, PTA 0.483, AgNO3 0.326 mg/mL)",83.4 ± 5.1%
same,surviving fraction,"[5]; A549, 6h + 24h, dil. 10 000x (stocks: diclofenac 0.918, PTA 0.483, AgNO3 0.326 mg/mL)",96.8 ± 10.8%
same,surviving fraction,"[5]; A549, 6h + 24h, dil. 100x (stocks: diclofenac 0.918, PTA 0.483, AgNO3 0.326 mg/mL)",77.5 ± 9.8%
same,surviving fraction,"[5]; A549, 6h + 24h, dil. 1000x (stocks: diclofenac 0.918, PTA 0.483, AgNO3 0.326 mg/mL)",82.4 ± 12.9%
same,surviving fraction,"[5]; A549, 24h + 24h, dil. 10 000x (stocks: diclofenac 0.918, PTA 0.483, AgNO3 0.326 mg/mL)",98.6 ± 5.9%
same,surviving fraction,"[5]; A549, 24h + 24h, dil. 100x (stocks: diclofenac 0.918, PTA 0.483, AgNO3 0.326 mg/mL)",77.2 ± 12.8%
same,surviving fraction,"[5]; A549, 24h + 24h, dil. 1000x (stocks: diclofenac 0.918, PTA 0.483, AgNO3 0.326 mg/mL)",88.2 ± 8.7%
same,surviving fraction,"[5]; A549, 72h + 24h, dil. 10 000x (stocks: diclofenac 0.918, PTA 0.483, AgNO3 0.326 mg/mL)",92.7 ± 8.6%
same,surviving fraction,"[5]; A549, 72h + 24h, dil. 100x (stocks: diclofenac 0.918, PTA 0.483, AgNO3 0.326 mg/mL)",67.3 ± 8.6%
same,surviving fraction,"[5]; A549, 72h + 24h, dil. 1000x (stocks: diclofenac 0.918, PTA 0.483, AgNO3 0.326 mg/mL)",79.8 ± 7.5%
same,surviving fraction,"[6]; MCF-7, 6h + 24h, dil. 10 000x (stocks: diclofenac 0.918, PTA 0.483, AgNO3 0.326 mg/mL)",88.6 ± 7.5%
same,surviving fraction,"[6]; MCF-7, 6h + 24h, dil. 100x (stocks: diclofenac 0.918, PTA 0.483, AgNO3 0.326 mg/mL)",78.6 ± 13.1%
same,surviving fraction,"[6]; MCF-7, 6h + 24h, dil. 1000x (stocks: diclofenac 0.918, PTA 0.483, AgNO3 0.326 mg/mL)",89.6 ± 4.8%
same,surviving fraction,"[6]; MCF-7, 24h + 24h, dil. 10 000x (stocks: diclofenac 0.918, PTA 0.483, AgNO3 0.326 mg/mL)",100.2 ± 6.6%
same,surviving fraction,"[6]; MCF-7, 24h + 24h, dil. 100x (stocks: diclofenac 0.918, PTA 0.483, AgNO3 0.326 mg/mL)",70.9 ± 8.8%
same,surviving fraction,"[6]; MCF-7, 24h + 24h, dil. 1000x (stocks: diclofenac 0.918, PTA 0.483, AgNO3 0.326 mg/mL)",82.7 ± 11.5%
same,surviving fraction,"[6]; MCF-7, 72h + 24h, dil. 10 000x (stocks: diclofenac 0.918, PTA 0.483, AgNO3 0.326 mg/mL)",102.5 ± 6.0%
same,surviving fraction,"[6]; MCF-7, 72h + 24h, dil. 100x (stocks: diclofenac 0.918, PTA 0.483, AgNO3 0.326 mg/mL)",84.7 ± 8.9%
same,surviving fraction,"[6]; MCF-7, 72h + 24h, dil. 1000x (stocks: diclofenac 0.918, PTA 0.483, AgNO3 0.326 mg/mL)",88.6 ± 7.9%
same,surviving fraction,"[7]; 6h + 24h, dil. 10 000x (stocks: diclofenac 0.918, PTA 0.483, AgNO3 0.326 mg/mL)",109.7 ± 6.3%
same,surviving fraction,"[7]; 6h + 24h, dil. 100x (stocks: diclofenac 0.918, PTA 0.483, AgNO3 0.326 mg/mL)",99.7 ± 4.9%
same,surviving fraction,"[7]; 24h + 24h, dil. 10 000x (stocks: diclofenac 0.918, PTA 0.483, AgNO3 0.326 mg/mL)",98.1 ± 12.1%
same,surviving fraction,"[7]; 24h + 24h, dil. 100x (stocks: diclofenac 0.918, PTA 0.483, AgNO3 0.326 mg/mL)",92.2 ± 5.3%
same,surviving fraction,"[7]; 24h + 24h, dil. 1000x (stocks: diclofenac 0.918, PTA 0.483, AgNO3 0.326 mg/mL)",96.7 ± 9.7%
same,surviving fraction,"[7]; 72h + 24h, dil. 10 000x (stocks: diclofenac 0.918, PTA 0.483, AgNO3 0.326 mg/mL)",100.6 ± 8.1%
same,surviving fraction,"[7]; 72h + 24h, dil. 100x (stocks: diclofenac 0.918, PTA 0.483, AgNO3 0.326 mg/mL)",91.2 ± 6.5%
same,surviving fraction,"[7]; 72h + 24h, dil. 1000x (stocks: diclofenac 0.918, PTA 0.483, AgNO3 0.326 mg/mL)",98.2 ± 8.4%
same,surviving fraction,"[8]; Du-145, 6h + 24h, dil. 10 000x (stocks: diclofenac 0.918, PTA 0.483, AgNO3 0.326 mg/mL)",106.9 ± 9.2%
same,surviving fraction,"[8]; Du-145, 6h + 24h, dil. 100x (stocks: diclofenac 0.918, PTA 0.483, AgNO3 0.326 mg/mL)",78.4 ± 11.8%
same,surviving fraction,"[8]; Du-145, 6h + 24h, dil. 1000x (stocks: diclofenac 0.918, PTA 0.483, AgNO3 0.326 mg/mL)",89.3 ± 8.8%
same,surviving fraction,"[8]; Du-145, 24h + 24h, dil. 10 000x (stocks: diclofenac 0.918, PTA 0.483, AgNO3 0.326 mg/mL)",99.2 ± 7.2%
same,surviving fraction,"[8]; Du-145, 24h + 24h, dil. 100x (stocks: diclofenac 0.918, PTA 0.483, AgNO3 0.326 mg/mL)",73.8 ± 12.6%
same,surviving fraction,"[8]; Du-145, 24h + 24h, dil. 1000x (stocks: diclofenac 0.918, PTA 0.483, AgNO3 0.326 mg/mL)",89.2 ± 5.8%
same,surviving fraction,"[8]; Du-145, 72h + 24h, dil. 10 000x (stocks: diclofenac 0.918, PTA 0.483, AgNO3 0.326 mg/mL)",101.2 ± 12.4%
same,surviving fraction,"[8]; Du-145, 72h + 24h, dil. 100x (stocks: diclofenac 0.918, PTA 0.483, AgNO3 0.326 mg/mL)",62.3 ± 8.7%
same,surviving fraction,"[8]; Du-145, 72h + 24h, dil. 1000x (stocks: diclofenac 0.918, PTA 0.483, AgNO3 0.326 mg/mL)",84.2 ± 8.2%
same,IC50,[9],1290 ± 52.6 µM
same,IC50,[10],1170 ± 14.7 µM
same,IC50,[11],1471 ± 14.4 µM
same,IC50,[12],867 ± 18.3 µM
same,IC50,[13],826 ± 8.76 µM
same,IC50,[14],1230 ± 21.9 µM
